Measured values published in patent publication US20080200454A1, “CARBON-LINKED TETRAHYDRO-PYRAZOLO-PYRIDINE MODULATORS OF CATHEPSIN S” (priority 2007, published 2008).

Molecular target: Recombinant human cathepsin S (CatS) (Homo sapiens, UniProt P25774)
Experiment: Recombinant human cathepsin S (CatS) inhibition assay, fluorogenic substrate Z-Valine-Valine-Arginine-AMC;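 further: Baculovirus-expressed CatS in pH 5.0 sodium acetate buffer with DTT and NaCl, fluorescence read each minute over 20 min, inhibition derived from rate slope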
Conditions: not given

Sequence of Recombinant human cathepsin S (CatS) (P25774 115-331): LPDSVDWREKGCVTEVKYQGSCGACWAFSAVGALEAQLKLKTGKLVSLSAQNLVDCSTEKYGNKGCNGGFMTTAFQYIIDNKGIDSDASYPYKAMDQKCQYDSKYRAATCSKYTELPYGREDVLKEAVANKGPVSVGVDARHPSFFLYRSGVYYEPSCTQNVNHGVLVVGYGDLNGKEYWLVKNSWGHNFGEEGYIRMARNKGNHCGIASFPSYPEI

Compared with `NC(=O)N1CCc2c(c(-c3ccc(Cl)c(C#Cc4ccc(Cl)c(C(=O)NCCCO)c4)c3)nn2CCCN2CCSCC2)C1` [Example 555, 3-[4-Chloro-3-({4-chloro-3-[(3-hydroxypropyl)carbamoyl]phenyl}ethynyl)phenyl]-1-(3-thiomorpholin-4-ylpropyl)-1,4,6,7-tetrahydro-5H-pyrazolo[4,3-c]pyridine-5-carboxamide], `NC(=O)N1CCc2c(c(-c3ccc(Cl)c(C#Cc4ccc(CNCc5ccc(Cl)cc5)cc4)c3)nn2CCCN2CCCCC2)C1` [Example 458, 3-(4-Chloro-3-{[4-({[(4-chlorophenyl)methyl]amino}methyl)phenyl]ethynyl}phenyl)-1-(3-piperidin-1-ylpropyl)-1,4,6,7-tetrahydro-5H-pyrazolo[4,3-c]pyridine-5-carboxamide] is 3-fold higher in IC50: 20 nM for the first, 60 nM for the second.

Compared with `COC(=O)c1ccccc1S(=O)(=O)NCCCc1cc(-c2nn(CCCN3CCC(N4CCCC4=O)CC3)c3c2CN(S(C)(=O)=O)CC3)ccc1Cl` [Example 309, Methyl 2-{[(3-{2-chloro-5-[5-(methylsulfonyl)-1-{3-[4-(2-oxopyrrolidin-1-yl)piperidin-1-yl]propyl}-4,5,6,7-tetrahydro-1H-pyrazolo[4,3-c]pyridin-3-yl]phenyl}propyl)amino]sulfonyl}benzoate], `CS(=O)(=O)N1CCc2c(c(-c3ccc(Cl)c(C#CCCc4ccccc4)c3)nn2CCCN2CCOCC2)C1` [Example 42, 3-[4-Chloro-3-(4-phenyl-but-1-ynyl)-phenyl]-5-methanesulfonyl-1-(3-morpholin-4-yl-propyl)-4,5,6,7-tetrahydro-1H-pyrazolo[4,3-c]pyridine] is 30-fold higher in IC50: 320 nM for the first, 9750 nM for the second. The first is the more potent here.

`CS(=O)(=O)N1CCc2c(c(-c3ccc(Cl)c(C#Cc4ccc(CC#N)cc4)c3)nn2CCCN2CCOCC2)C1` [Example 3, (4-{2-Chloro-5-[5-methanesulfonyl-1-(3-morpholin-4-yl-propyl)-4,5,6,7-tetrahydro-1H-pyrazolo[4,3-c]pyridin-3-yl]-phenylethynyl}-phenyl)-acetonitrile] and `CS(=O)(=O)N1CCc2c(c(-c3ccc(Cl)c(C#Cc4ccc(CNCc5ccc(Cl)cc5)cc4)c3)nn2CCCN2CCOCC2)C1` [Example 76, (4-Chloro-benzyl)-(4-{2-chloro-5-[5-methanesulfonyl-1-(3-morpholin-4-yl-propyl)-4,5,6,7-tetrahydro-1H-pyrazolo[4,3-c]pyridin-3-yl]-phenylethynyl}-benzyl)-amine] are within 1.5-fold of each other in IC50: 270 nM for the first, 240 nM for the second.

Same assay, conditions: CatS IC50

First: C[C@H]1COCCN1CCCn1nc(-c2ccc(Cl)c(C#Cc3ccc4c(c3)CN(C)CC4)c2)c2c1CCN(S(C)(=O)=O)C2 [Example 281, 7-({2-Chloro-5-[1-{3-[(3S)-3-methylmorpholin-4-yl]propyl}-5-(methylsulfonyl)-4,5,6,7-tetrahydro-1H-pyrazolo[4,3-c]pyridin-3-yl]phenyl}ethynyl)-2-methyl-1,2,3,4-tetrahydroisoquinoline]
Second: C[C@H]1COCCN1CCCn1nc(-c2ccc(Cl)c(C#Cc3ccc4c(c3)CCN(C)C4)c2)c2c1CCN(S(C)(=O)=O)C2 [Example 519, 6-({2-Chloro-5-[1-{3-[(3S)-3-methylmorpholin-4-yl]propyl}-5-(methylsulfonyl)-4,5,6,7-tetrahydro-1H-pyrazolo[4,3-c]pyridin-3-yl]phenyl}ethynyl)-2-methyl-1,2,3,4-tetrahydroisoquinoline]
The IC50 of the first is 3.3-fold lower: 120 nM for the first, 400 nM for the second. The first is the more potent here.

Compared with `CS(=O)(=O)N1CCc2c(c(-c3ccc(Cl)c(C#Cc4ccc(CN5CCCC5)cc4)c3)nn2CCCN2CCOCC2)C1` [Example 78, 3-[4-Chloro-3-(4-pyrrolidin-1-ylmethyl-phenylethynyl)-phenyl]-5-methanesulfonyl-1-(3-morpholin-4-yl-propyl)-4,5,6,7-tetrahydro-1H-pyrazolo[4,3-c]pyridine], `CS(=O)(=O)N1CCc2c(c(-c3ccc(Cl)c(C#Cc4ccc(CNCc5ccc(Cl)cc5)cc4)c3)nn2CCCN2CCC(N3CCOCC3)CC2)C1` [Example 343, 1-{4-[(2-Chloro-5-{5-(methylsulfonyl)-1-[3-(4-morpholin-4-ylpiperidin-1-yl)propyl]-4,5,6,7-tetrahydro-1H-pyrazolo[4,3-c]pyridin-3-yl}phenyl)ethynyl]phenyl}-N-[(4-chlorophenyl)methyl]methanamine] is 35-fold lower in IC50: 1400 nM for the first, 40 nM for the second.

`CC(C)(C)C1CCN(CCCn2nc(-c3ccc(Cl)c(C#Cc4ccc5c(c4)CNCC5)c3)c3c2CCN(S(C)(=O)=O)C3)CC1` [Example 378, 7-({2-Chloro-5-[1-{3-[4-(1,1-dimethylethyl)piperidin-1-yl]propyl}-5-(methylsulfonyl)-4,5,6,7-tetrahydro-1H-pyrazolo[4,3-c]pyridin-3-yl]phenyl}ethynyl)-1,2,3,4-tetrahydroisoquinoline] and `C[C@H]1COCCN1CCCn1nc(-c2ccc(Cl)c(C#Cc3ccc4c(c3)CNCC4)c2)c2c1CCN(S(C)(=O)=O)C2` [Example 278, 7-({2-Chloro-5-[1-{3-[(3S)-3-methylmorpholin-4-yl]propyl}-5-(methylsulfonyl)-4,5,6,7-tetrahydro-1H-pyrazolo[4,3-c]pyridin-3-yl]phenyl}ethynyl)-1,2,3,4-tetrahydroisoquinoline] are within 1.5-fold of each other in IC50: 80 nM for the first, 110 nM for the second.

First: NC(=O)N1CCc2c(c(-c3ccc(Cl)c(C#Cc4cccc(CNCc5ccc(F)cc5)c4)c3)nn2CCCN2CCSCC2)C1 [Example 517, 3-(4-Chloro-3-{[3-({[(4-fluorophenyl)methyl]amino}methyl)phenyl]ethynyl}phenyl)-1-(3-thiomorpholin-4-ylpropyl)-1,4,6,7-tetrahydro-5H-pyrazolo[4,3-c]pyridine-5-carboxamide]
Second: CN1CCN(CCCn2nc(-c3ccc(Cl)c(C#Cc4ccc(CNCc5ccc(Cl)cc5)cc4)c3)c3c2CCN(S(C)(=O)=O)C3)CC1 [Example 354, 1-{4-[(2-Chloro-5-{1-[3-(4-methylpiperazin-1-yl)propyl]-5-(methylsulfonyl)-4,5,6,7-tetrahydro-1H-pyrazolo[4,3-c]pyridin-3-yl}phenyl)ethynyl]phenyl}-N-[(4-chlorophenyl)methyl]methanamine]
The IC50 of the first is 1.9-fold lower: 190 nM for the first, 360 nM for the second. The first is the more potent here.

With `C[C@H]1COCCN1CCCn1nc(-c2ccc(Cl)c(C#Cc3ccc(Cl)c(CNCCO)c3)c2)c2c1CCN(S(C)(=O)=O)C2` [Example 293, 2-({[2-Chloro-5-({2-chloro-5-[1-{3-[(3S)-3-methylmorpholin-4-yl]propyl}-5-(methylsulfonyl)-4,5,6,7-tetrahydro-1H-pyrazolo[4,3-c]pyridin-3-yl]phenyl}ethynyl)phenyl]methyl}amino)ethanol] the IC50 was 50 nM.

Same assay, conditions: CatS IC50, Table 2; average of results obtained

Compared with `CS(=O)(=O)N1CCc2c(c(-c3ccc(Cl)c(C#Cc4ccncc4)c3)nn2CCCN2CCOCC2)C1` [Example 20, 3-(4-Chloro-3-pyridin-4-ylethynyl-phenyl)-5-methanesulfonyl-1-(3-morpholin-4-yl-propyl)-4,5,6,7-tetrahydro-1H-pyrazolo[4,3-c]pyridine], `CS(=O)(=O)N1CCc2c(c(-c3ccc(Cl)c(C#Cc4cccc(C(F)(F)F)c4)c3)nn2CCCN2CCOCC2)C1` [Example 36, 3-[4-Chloro-3-(3-trifluoromethyl-phenylethynyl)-phenyl]-5-methanesulfonyl-1-(3-morpholin-4-yl-propyl)-4,5,6,7-tetrahydro-1H-pyrazolo[4,3-c]pyridine] is 2.7-fold higher in IC50: 540 nM for the first, 1450 nM for the second. The first is the more potent here.
